Consider one compound from patent US7442707B2, “CCI-779 polymorph and use thereof” (Wyeth, priority 2005, dated 2008).

Each structure is given as a SMILES string.

Data set [1] can be described thus: Powder flow characteristics from crystal morphology at bench scale. The class given is physicochemical. The following applies: Form II plate-like morphology vs Form I needle-like.
Data set [2] is described as follows: Storage stability of crystalline Form II (conversion to Form I). In kind it is physicochemical. The following applies: stored under room temperature and pressure. The source says: Stable Form II can be prepared as described and stored under room temperature and pressure for greater than 3 months without conversion to Form I.

As to `COC1CC2CCC(C)C(O)(O2)C(=O)C(=O)N2CCCCC2C(=O)OC(C(C)CC2CCC(OC(=O)C(C)(CO)CO)C(OC)C2)CC(=O)C(C)/C=C(\C)C(O)C(OC)C(=O)C(C)CC(C)/C=C/C=C/C=C/1C` (centres unmarked) [CCI-779 polymorph Form II, Rapamycin 42-ester with 3-hydroxy-2-(hydroxymethyl)-2-methylpropionic acid], the “powder flow characteristics relative to Form I” value in data set [1] was “better powder flow characteristics than form I”. In addition, the “storage time without conversion to Form I” value in data set [2] is “greater than 3 months”.
